Reference: patent publication US9943592B2, “Vaccine adjuvants from self-assembling peptides” (priority 2011, dated 2018)
Square brackets hold non-standard residues; d marks the D form. Ends that are not written are not given here.

What was measured:
PRRSV [1] = assay: dynamic viremia after vaccination in pigs; conditions: pig, in vivo
Description: (§1) A stock solution of h9e peptide (concentration 1.75% by weight in water) was prepared. For the active agent, 2X Ingelvac PRRS MLV (Boehringer Ingelheim Vetmedica, St. Joseph, Mo.) was used. The vaccine was rehydrated by adding half of the contents of the accompanying liquid diluent to the vial containing the virus. Medium was then prepared by adding 0.3 ml bovine serum to 7.2 ml MEM medium (ion source). Next, 5 ml of the peptide stock solution was added to the medium and mixed well. This was then mixed with the vaccine solution. The final concentration of h9e as adjuvant was 0.35% by weight, and the final concentration of serum was […] by weight.
(§2) Vaccines were also prepared using a commercially-available adjuvant, Montanide™ Gel 01 (aqueous polymeric gel veterinary adjuvant, Seppic Inc., Fairfield, N.J.), or a published peptide hydrogel, designated herein as A1/2 (SEQ ID NO:28, corresponding to the N-terminal region of mineral directing gelator (MDG) 1; Gungormus, et al., Biomaterials 31 (2010) 7266-7274).
(§3) 55 PRRSV serum negative pigs were initially divided into 5 vaccination groups and vaccinated on Day 0. […]
(§4) At Day 0, all pigs were weighed, and weight was monitored weekly and recorded on Days 7, 14, 21, and 28. […] Body temperature and clinical signs were monitored daily and recorded. […]

PRRSV [2] = assay: IDEXX ELISA Ab titer in pigs; type: in vivo
Description: as §1, §2, §3, §4

PRRSV [3] = assay: dynamic viremia after challenge in pigs; type: in vivo; conditions: challenge with VR2332 or MN184a on day 28
Description: as §1, §2, §3, §4

[4] = solubility, stability and morphology of peptide and hydrogel; type: physicochemical; conditions: for solubility of peptide in water: until pH adjusted to neutral or basic
[5] = rheology of peptide hydrogels (storage modulus G', amplitude sweep, temperature profile); type: physicochemical
Description: (§5) The synthesized peptide was dissolved in DI water to a concentration of 5 mM by adjusting the pH to 8.0-10.0 with 1 M NaOH (Sigma). The h5e acidic solution and acidic h9e hydrogel were made by adjusting the pH to 4.0 with 1 M HCl (Sigma). The h9e Ca^2+ hydrogel was prepared by adding CaCl2 to a basic h9e peptide solution (molar ratio of peptide and Ca^2+ was 1:10, final pH was 7.0 to 9.0). The same method was used to prepare the h5e Ca^2+ solution.
The storage, G′, and loss, G″, moduli of h9e acidic and Ca^2+ hydrogels were determined on a rheometer system C-VOR 150 (Malvern instruments, Malvern, Worcestershire WR141XZ, United Kingdom) with a 20-mm diameter parallel plate geometry through frequency sweep (strain 1%, frequency 0.01 to 10 Hz, temperature 25° C.), amplitude sweep (strain 1 to 500%, frequency 1 Hz, temperature 25° C.), and temperature profile (strain 1%, frequency 1 Hz, Temperature 5° C., 20° C., 37° C., 50° C., 75° C., and 90° C.) measurements. The multiple amplitude sweep experiments were conducted to test the moduli recovery of peptide hydrogels. The time gap between every two tests was 10, 30, and 60 seconds for h9e Ca^2+ hydrogel.

[6] = hydrogel formation of peptide solutions (ion or pH trigger); type: physicochemical; conditions: 0.005M peptide concentration
Description: as §5

In the case of “A1/2: published peptide hydrogel, N-terminal region of mineral directing gelator (MDG) 1 (VKVKVKVKVPPTKVEVKVKV; Derivative of N-terminal region of mineral directing gelator (MDG) 1)”, the “viremia after vaccination compared to the MLV group” value (PRRSV [1]) was “no difference”, the “ELISA Ab titer after vaccination, compared among groups” value (PRRSV [2]) was “lowest” and the viremia after challenge (PRRSV [3]) was “not”.
In the case of FLIVIGPGGDGPGGD [h5e, FLIVIGPGGDGPGGD], the “solubility of peptide in water” value [4] was “insoluble in water”.
For “FLIVIGSIIGPGGDGPGGD [h9e, FLIVIGSIIGPGGDGPGGD]”, the “temperature stability of hydrogel” value [4] was “up to 90 °C”, the “water solubility of hydrogel” value [4] was “water soluble” and the “solubility of peptide in water” value [4] was “insoluble in water”. The “general health / biological safety” value (immunized mice until sera collection) was “biologically safe” and the “injection site reaction (redness or swelling)” value (vaccinated mice) was “No injection site reaction”.
In the case of “FLIVIGSIIKKKKKKKKKK (Synthetic peptide adjuvant) [h9e variant with eD2 region replaced by K10]”, the “G' of hydrogel in basic pH” value [5] was 55.0 ± 0.9 Pa.
With “GPGGDGPGGD (Hydrophilic region derived from spider flagelliform silk protein) [eD2]” the “hydrogel formation in Ca^2+ solution” value [6] was “not able to form hydrogels”.
With “L5GSIIK10: L5K10 diblock peptide with GSII inserted (LLLLLGSIIKKKKKKKKKK)” the “hydrogel formation in Ca^2+ solution” value [6] was “no hydrogel formation was observed”.
With “L5PP^DK10: L5K10 diblock peptide with sharp turning segment PP^D inserted (LLLLLP[dP]KKKKKKKKKK)” the “hydrogel formation in Ca^2+ solution” value [6] was “no hydrogel formation was observed”.
For “LLLLLKKKKKKKKKK (Synthetic diblock peptide) [L5K10]”, the “hydrogel formation in Ca^2+ solution” value [6] was “no hydrogel formation was observed”.
